Source: patent publication US20170157010A1, “METHODS AND COMPOSITIONS FOR TREATMENT OF DISORDERS ASSOCIATED WITH DAMAGE INDUCED BY FREE RADICALS” (Glycadia, Inc., priority 2015, published 2017)
“And” between values parts separate entries of the source, which are not always exact repeats. Equal values may be shown once.

Tests used:
[1] = Ultraviolet absorption spectrum; format: physicochemical
Source text: Ultraviolet (UV) absorption peaks of 2-(3-chlorophenylamino)phenylacetic acid at 211 and 283 nm, encompassing wavelength range of medium wave UVB (315-280 nm) and short wave UVC (280-190 nm).

[2] = Brain penetration following oral administration in rats (HPLC/MS/MS); format: in vivo; details: rat; sodium salt by gavage 15 and 60 mg/kg
Description: Rat hemi brains were obtained 1,4 and 6 hours after administration by gavage of the sodium salt of 23CPPA at doses of 15 and 60 mg/kg and were mixed with two equivalents of water and homogenized. The resulting homogenate was extracted with acetonitrile containing internal standard and concentrations of the compound were analyzed by high pressure liquid chromatography/two stage mass spectrometry (HPLC/MS/MS). Plasma samples also were collected from the same rats at these time points for measurement of plasma concentrations of the compound.

[3] = ABTS radical cation free radical scavenging (bleaching of absorbance at 734 nm); format: biochemical; details: ABTSY+ 450 micromolar, pH 7.4
Source text: A radical cation of 2,2′-azino-bis(3-ethylbenzthiazoline-6-sulfonic acid) diammonium salt (ABTS) was generated by oxidation with manganese dioxide, forming the blue-green radical cation ABTSY+ with spectrophotometric absorbance at 734 nanommeters (nm). The reaction was initiated by the addition of 23CPPA (5-40 micromolar) to ABTSY+ (450 micromolar) in phosphate buffer (75 millimolar, pH 7.4) and decay of the blue-green radical cation absorbance was monitored over time. Absorbance profiles were obtained with incubation in phosphate buffer (75 millimolar, pH 7.4) as control. The reaction of anti-oxidants with stable free radicals such as ABTSY+ that is generated from ABTS measures their free radical scavenging capacities.

O=C(O)Cc1ccccc1Nc1cccc(Cl)c1 [23CPPA, 2-[(3-chlorophenyl)amino] phenylacetic acid]
Ultraviolet (UV) absorption peaks [1]: 211 nm and 283 nm
Absorbance ([1]; wavelength 190 nm): 0.5
Absorbance ([1]; wavelength 195 nm): 0.75
Absorbance ([1]; wavelength 197 nm): 1.0
Absorbance ([1]; wavelength 198 nm): 1.25
Absorbance ([1]; wavelength 199 nm): 1.5
Absorbance ([1]; wavelength 205 nm): 2.0
Absorbance ([1]; wavelength 208 nm): 2.1
Absorbance ([1]; wavelength 211 nm): 2.2
Absorbance ([1]; wavelength 212 nm): 2.0
Absorbance ([1]; wavelength 220 nm): 1.25
Absorbance ([1]; wavelength 222 nm): 1.0
Absorbance ([1]; wavelength 232 nm): 0.5
Absorbance ([1]; wavelength 235 nm): 0.45
Absorbance ([1]; wavelength 239 nm): 0.43
Absorbance ([1]; wavelength 243 nm): 0.43
Absorbance ([1]; wavelength 249 nm): 0.43
Absorbance ([1]; wavelength 252 nm): 0.43
Absorbance ([1]; wavelength 256 nm): 0.43
Absorbance ([1]; wavelength 260 nm): 0.5
Absorbance ([1]; wavelength 272 nm): 0.75
Absorbance ([1]; wavelength 283 nm): 0.93
Absorbance ([1]; wavelength 291 nm): 0.75
Absorbance ([1]; wavelength 300 nm): 0.5
Absorbance ([1]; wavelength 308 nm): 0.25
Absorbance ([1]; wavelength 325 nm): 0
Dose dependence of brain concentrations [2]: dose proportional
Decay (% of starting absorbance) ([3]; 23CPPA 5 micromolar, 1 minute): 74 % of starting absorbance
Decay (% of starting absorbance) ([3]; 23CPPA 5 micromolar, 2 minutes): 72 % of starting absorbance
Decay (% of starting absorbance) ([3]; 23CPPA 5 micromolar, 3 minutes): 69 % of starting absorbance
Decay (% of starting absorbance) ([3]; 23CPPA 5 micromolar, 4 minutes): 67 % of starting absorbance
Decay (% of starting absorbance) ([3]; 23CPPA 5 micromolar, 5 minutes): 65 % of starting absorbance
Decay (% of starting absorbance) ([3]; 23CPPA 5 micromolar, 6 minutes): 63 % of starting absorbance
Decay (% of starting absorbance) ([3]; 23CPPA 5 micromolar, 7 minutes): 61 % of starting absorbance
Decay (% of starting absorbance) ([3]; 23CPPA 5 micromolar, 8 minutes): 60 % of starting absorbance
Decay (% of starting absorbance) ([3]; 23CPPA 5 micromolar, 9 minutes): 58 % of starting absorbance
Decay (% of starting absorbance) ([3]; 23CPPA 5 micromolar, 10 minutes): 56 % of starting absorbance
Decay (% of starting absorbance) ([3]; 23CPPA 5 micromolar, 11 minutes): 55 % of starting absorbance
Decay (% of starting absorbance) ([3]; 23CPPA 5 micromolar, 12 minutes): 53 % of starting absorbance
Decay (% of starting absorbance) ([3]; 23CPPA 5 micromolar, 13 minutes): 52 % of starting absorbance
Decay (% of starting absorbance) ([3]; 23CPPA 5 micromolar, 14 minutes): 51 % of starting absorbance
Decay (% of starting absorbance) ([3]; 23CPPA 5 micromolar, 15 minutes): 49 % of starting absorbance
Decay (% of starting absorbance) ([3]; 23CPPA 10 micromolar, 1 minute): 57 % of starting absorbance
Decay (% of starting absorbance) ([3]; 23CPPA 10 micromolar, 2 minutes): 56 % of starting absorbance
Decay (% of starting absorbance) ([3]; 23CPPA 10 micromolar, 3 minutes): 53 % of starting absorbance
Decay (% of starting absorbance) ([3]; 23CPPA 10 micromolar, 4 minutes): 52 % of starting absorbance
Decay (% of starting absorbance) ([3]; 23CPPA 10 micromolar, 5 minutes): 51 % of starting absorbance
Decay (% of starting absorbance) ([3]; 23CPPA 10 micromolar, 6 minutes): 50 % of starting absorbance
Decay (% of starting absorbance) ([3]; 23CPPA 10 micromolar, 7 minutes): 48 % of starting absorbance
Decay (% of starting absorbance) ([3]; 23CPPA 10 micromolar, 8 minutes): 47 % of starting absorbance
Decay (% of starting absorbance) ([3]; 23CPPA 10 micromolar, 9 minutes): 46 % of starting absorbance
Decay (% of starting absorbance) ([3]; 23CPPA 10 micromolar, 10 minutes): 44 % of starting absorbance
Decay (% of starting absorbance) ([3]; 23CPPA 10 micromolar, 11 minutes): 44 % of starting absorbance
Decay (% of starting absorbance) ([3]; 23CPPA 10 micromolar, 12 minutes): 43 % of starting absorbance
Decay (% of starting absorbance) ([3]; 23CPPA 10 micromolar, 13 minutes): 43 % of starting absorbance
Decay (% of starting absorbance) ([3]; 23CPPA 10 micromolar, 14 minutes): 42 % of starting absorbance
Decay (% of starting absorbance) ([3]; 23CPPA 10 micromolar, 15 minutes): 42 % of starting absorbance
Decay (% of starting absorbance) ([3]; 23CPPA 20 micromolar, 1 minute): 37 % of starting absorbance
Decay (% of starting absorbance) ([3]; 23CPPA 20 micromolar, 2 minutes): 27 % of starting absorbance
Decay (% of starting absorbance) ([3]; 23CPPA 20 micromolar, 3 minutes): 23 % of starting absorbance
Decay (% of starting absorbance) ([3]; 23CPPA 20 micromolar, 4 minutes): 20 % of starting absorbance
Decay (% of starting absorbance) ([3]; 23CPPA 20 micromolar, 5 minutes): 17 % of starting absorbance
Decay (% of starting absorbance) ([3]; 23CPPA 20 micromolar, 6 minutes): 14 % of starting absorbance
Decay (% of starting absorbance) ([3]; 23CPPA 20 micromolar, 7 minutes): 13 % of starting absorbance
Decay (% of starting absorbance) ([3]; 23CPPA 20 micromolar, 8 minutes): 12 % of starting absorbance
Decay (% of starting absorbance) ([3]; 23CPPA 20 micromolar, 9 minutes): 12 % of starting absorbance
Decay (% of starting absorbance) ([3]; 23CPPA 20 micromolar, 10 minutes): 11 % of starting absorbance
Decay (% of starting absorbance) ([3]; 23CPPA 20 micromolar, 11 minutes): 10 % of starting absorbance
Decay (% of starting absorbance) ([3]; 23CPPA 20 micromolar, 12 minutes): 10 % of starting absorbance
Decay (% of starting absorbance) ([3]; 23CPPA 20 micromolar, 13 minutes): 9 % of starting absorbance
Decay (% of starting absorbance) ([3]; 23CPPA 20 micromolar, 14 minutes): 9 % of starting absorbance
Decay (% of starting absorbance) ([3]; 23CPPA 20 micromolar, 15 minutes): 9 % of starting absorbance
Decay (% of starting absorbance) ([3]; 23CPPA 40 micromolar, 1 minute): 20 % of starting absorbance
Decay (% of starting absorbance) ([3]; 23CPPA 40 micromolar, 2 minutes): 20 % of starting absorbance
Decay (% of starting absorbance) ([3]; 23CPPA 40 micromolar, 3 minutes): 3 % of starting absorbance
Decay (% of starting absorbance) ([3]; 23CPPA 40 micromolar, 4 minutes): 1 % of starting absorbance
Decay (% of starting absorbance) ([3]; 23CPPA 40 micromolar, 5 minutes): 0 % of starting absorbance
Decay (% of starting absorbance) ([3]; 23CPPA 40 micromolar, 6 minutes): 0 % of starting absorbance
Decay (% of starting absorbance) ([3]; 23CPPA 40 micromolar, 7 minutes): 0 % of starting absorbance
Decay (% of starting absorbance) ([3]; 23CPPA 40 micromolar, 8 minutes): 0 % of starting absorbance
Decay (% of starting absorbance) ([3]; 23CPPA 40 micromolar, 9 minutes): 0 % of starting absorbance
Decay (% of starting absorbance) ([3]; 23CPPA 40 micromolar, 10 minutes): 0 % of starting absorbance
Decay (% of starting absorbance) ([3]; 23CPPA 40 micromolar, 11 minutes): 0 % of starting absorbance
Decay (% of starting absorbance) ([3]; 23CPPA 40 micromolar, 12 minutes): 0 % of starting absorbance
Decay (% of starting absorbance) ([3]; 23CPPA 40 micromolar, 13 minutes): 0 % of starting absorbance
Decay (% of starting absorbance) ([3]; 23CPPA 40 micromolar, 14 minutes): 0 % of starting absorbance
Decay (% of starting absorbance) ([3]; 23CPPA 40 micromolar, 15 minutes): 0 % of starting absorbance
